What was measured:
Experiment in all cases: in vitro antibacterial activity (MIC), BHI agar dilution
Format in all cases: cell-based
[1] = system: Staphylococcus aureus CMX 553; conditions: S. aureus CMX 553, 35-37° C., 20 to 24 hours
Description: (§1) Representative compounds of the present invention were assayed in vitro for antibacterial activity as follows: Twelve petri dishes containing successive aqueous dilutions of the test compound mixed with 10 mL of sterilized Brain Heart Infusion (BHI) agar (Difco 0418-01-5) were prepared. Each plate was inoculated with 1:100 (or 1:10 for slow-growing strains, such as Micrococcus and Streptococcus) dilutions of up to 32 different microorganisms, using a Steers replicator block. […] In addition, a control plate, using BHI agar containing no test compound, was prepared and incubated at the beginning and end of each test.
(§2) An additional plate containing a compound having known susceptibility patterns for the organisms being tested and belonging to the same antibiotic class as the test compound was also prepared and incubated as a further control, as well as to provide test-to-test comparability.
(§3) After incubation, each plate was visually inspected. The minimum inhibitory concentration (MIC) was defined as the lowest concentration of drug yielding no growth, a slight haze, or sparsely isolated colonies on the inoculum spot as compared to the growth control.

[2] = system: Streptococcus pyogenes EES61; conditions: S. pyogenes EES61, 35-37° C., 20 to 24 hours
Description: as §1, §2, §3

[3] = system: Streptococcus Pheumoniae 5649; conditions: 35-37° C., 20 to 24 hours
Description: as §1, §2, §3

[4] = system: Enterococcus faecium ATCC 8043; conditions: E. faecium ATCC 8043, 35-37° C., 20 to 24 hours
Description: as §1, §2, §3

[5] = system: Staphylococcus aureus 1775; conditions: S. aureus 1775, 35-37° C., 20 to 24 hours
Description: as §1, §2, §3

[6] = system: Staphylococcus aureus CMX 642A; conditions: S. aureus CMX 642A, 35-37° C., 20 to 24 hours
Description: as §1, §2, §3

[7] = system: Staphylococcus aureus A-5278; conditions: S. aureus A-5278, 35-37° C., 20 to 24 hours
Description: as §1, §2, §3

[8] = system: Streptococcus Pheumoniae 5979; conditions: 35-37° C., 20 to 24 hours
Description: as §1, §2, §3

[9] = system: Streptococcus pyogenes 930; conditions: S. pyogenes 930, 35-37° C., 20 to 24 hours
Description: as §1, §2, §3

[10] = system: Streptococcus agalactiae CMX 508; conditions: S. agalactiae CMX 508, 35-37° C., 20 to 24 hours
Description: as §1, §2, §3

[11] = system: Staphylococcus aureus A5177; conditions: S. aureus A5177, 35-37° C., 20 to 24 hours
Description: as §1, §2, §3

[12] = system: Micrococcus luteus ATCC 9341; conditions: M. luteus ATCC 9341, 35-37° C., 20 to 24 hours
Description: as §1, §2, §3

[13] = system: Nocardia Asteroides ATCC9970; conditions: 35-37° C., 20 to 24 hours
Description: as §1, §2, §3

Escherichia coli DC-2 = conditions: E. coli DC-2, 35-37° C., 20 to 24 hours
Description: as §1, §2, §3

[14] = system: Streptococcus bovis A-5169; conditions: S. bovis A-5169, 35-37° C., 20 to 24 hours
Description: as §1, §2, §3

[15] = system: Staphylococcus aureus NCTC10649M; conditions: S. aureus NCTC10649M, 35-37° C., 20 to 24 hours
Description: as §1, §2, §3

Escherichia coli JUHL = conditions: E. coli JUHL, 35-37° C., 20 to 24 hours
Description: as §1, §2, §3

[16] = system: Staphylococcus epidermidis 3519; conditions: S. epidermidis 3519, 35-37° C., 20 to 24 hours
Description: as §1, §2, §3

[17] = system: Streptococcus pyogenes PIU 2548; conditions: S. pyogenes PIU 2548, 35-37° C., 20 to 24 hours
Description: as §1, §2, §3

[18] = system: Mycobacterium smegmafis ATCC 114; conditions: 35-37° C., 20 to 24 hours
Description: as §1, §2, §3

[19] = system: Staphylococcus aureus ATCC 6538P; conditions: S. aureus ATCC 6538P, 35-37° C., 20 to 24 hours
Description: as §1, §2, §3

[20] = system: Haemophilis Influenzae DILL AMP R; conditions: 35-37° C., 20 to 24 hours
Description: as §1, §2, §3

[21] = system: Streptococcus Pheumoniae ATCC6303; conditions: 35-37° C., 20 to 24 hours
Description: as §1, §2, §3

Candida albicans CCH 442 = conditions: C. albicans CCH 442, 35-37° C., 20 to 24 hours
Description: as §1, §2, §3

Escherichia coli SS = conditions: E. coli SS, 35-37° C., 20 to 24 hours
Description: as §1, §2, §3

[22] = system: Micrococcus luteus ATCC 4698; conditions: M. luteus ATCC 4698, 35-37° C., 20 to 24 hours
Description: as §1, §2, §3

[23] = system: Streptococcus Pheumoniae GYR 1171; conditions: 35-37° C., 20 to 24 hours
Description: as §1, §2, §3

SMILES: CC[C@H]1OC(=O)[C@H](C)C(=O)[C@H](C)[C@@H](O[C@@H]2O[C@H](C)C[C@H](N(C)C)[C@H]2O)[C@@]2(C)C[C@@H](C)C(=NOCO2)[C@H](C)[C@H]2OC(=O)O[C@@]21C [Example 3]
- MIC (minimum inhibitory concentration) [1]: 3.1
- MIC (minimum inhibitory concentration) [2]: 0.39
- MIC (minimum inhibitory concentration) [3]: 0.5
- MIC (minimum inhibitory concentration) [4]: 0.78
- MIC (minimum inhibitory concentration) [5]: > 100
- MIC (minimum inhibitory concentration) [6]: 3.1
- MIC (minimum inhibitory concentration) [7]: > 100
- MIC (minimum inhibitory concentration) [8]: > 128
- MIC (minimum inhibitory concentration) [9]: > 100
- MIC (minimum inhibitory concentration) [10]: 0.78
- MIC (minimum inhibitory concentration) [11]: 3.1
- MIC (minimum inhibitory concentration) [12]: 0.39
- MIC (minimum inhibitory concentration) [13]: 0.78
- MIC (minimum inhibitory concentration) (Escherichia coli DC-2): > 100
- MIC (minimum inhibitory concentration) [14]: 0.2
- MIC (minimum inhibitory concentration) [15]: 3.1
- MIC (minimum inhibitory concentration) (Escherichia coli JUHL): > 100
- MIC (minimum inhibitory concentration) [16]: 3.1
- MIC (minimum inhibitory concentration) [17]: 0.78
- MIC (minimum inhibitory concentration) [18]: 25
- MIC (minimum inhibitory concentration) [19]: 3.1
- MIC (minimum inhibitory concentration) [20]: 16
- MIC (minimum inhibitory concentration) [21]: 1
- MIC (minimum inhibitory concentration) (Candida albicans CCH 442): > 100
- MIC (minimum inhibitory concentration) (Escherichia coli SS): 0.78
- MIC (minimum inhibitory concentration) [22]: 0.78
- MIC (minimum inhibitory concentration) [23]: 0.25

Source: patent publication US5780605A, “6,9-bridged erythromycin derivatives” (Abbott Laboratories, priority 1997, dated 1998)
